Test results: ChEMBL document CHEMBL4396896, “N-Aminoacyl and N-hydroxyacyl derivatives of diosgenyl 2-amino-2-deoxy-β-d-glucopyranoside: Synthesis, antimicrobial and hemolytic activities” (Bioorg Med Chem, 2019)
≈ marks a conversion by molar mass, not a printed value.

Experiments:
Candida albicans [1] = experiment: Antifungal activity against Candida albicans ATCC 10231 incubated in sabouraud liquid medium under aerobic condition for 48 hrs using initial inoculum of 10^3 CFU/ml by serial dilution method; type: functional; conditions: ATCC 10231, 48 h
Yarrowia lipolytica = experiment: Antifungal activity against Candida lipolytica PCM 2680 incubated in sabouraud liquid medium under aerobic condition for 48 hrs using initial inoculum of 10^3 CFU/ml by serial dilution method; type: functional; conditions: PCM 2680, 48 h
Bacillus subtilis = experiment: Antibacterial activity against Bacillus subtilis ATCC 6633 incubated in MHB II under aerobic condition for 18 hrs using initial inoculum of 5 x 10^5 CFU/ml by serial dilution method; type: functional; conditions: ATCC 6633, 18 h
Enterococcus faecalis [2] = experiment: Antibacterial activity against Enterococcus faecalis ATCC 29212 incubated in MHB II under aerobic condition for 18 hrs using initial inoculum of 5 x 10^5 CFU/ml by serial dilution method; type: functional; conditions: ATCC 29212, 18 h
Staphylococcus aureus = experiment: Antibacterial activity against Staphylococcus aureus ATCC 25923 incubated in MHB II under aerobic condition for 18 hrs using initial inoculum of 5 x 10^5 CFU/ml by serial dilution method; type: functional; conditions: ATCC 25923, 18 h
[3] = tested on: Staphylococcus epidermidis; experiment: Antibacterial activity against Staphylococcus epidermidis PCM 2118 incubated in MHB II under aerobic condition for 18 hrs using initial inoculum of 5 x 10^5 CFU/ml by serial dilution method; type: functional; conditions: PCM 2118, 18 h
Escherichia coli = experiment: Antibacterial activity against Escherichia coli ATCC 25922 incubated in MHB II under aerobic condition for 18 hrs using initial inoculum of 5 x 10^5 CFU/ml by serial dilution method; type: functional; conditions: ATCC 25922, 18 h
Klebsiella pneumoniae = experiment: Antibacterial activity against Klebsiella pneumoniae ATCC 700603 incubated in MHB II under aerobic condition for 18 hrs using initial inoculum of 5 x 10^5 CFU/ml by serial dilution method; type: functional; conditions: ATCC 700603, 18 h
Proteus mirabilis = experiment: Antibacterial activity against Proteus mirabilis PCM 543 incubated in MHB II under aerobic condition for 18 hrs using initial inoculum of 5 x 10^5 CFU/ml by serial dilution method; type: functional; conditions: PCM 543, 18 h
Pseudomonas aeruginosa = experiment: Antibacterial activity against Pseudomonas aeruginosa ATCC 9027 incubated in MHB II under aerobic condition for 18 hrs using initial inoculum of 5 x 10^5 CFU/ml by serial dilution method; type: functional; conditions: ATCC 9027, 18 h
[4] = Haemolytic activity in human erythrocytes assessed as haemolytic index by measuring hemoglobin release at 0.5 to 128 mg/L incubated for 1 hr by microplate spectrophotometry relative to control; type: ADME, cell-based, Erythrocyte; conditions: human erythrocytes, read-out: HI
[5] = Haemolytic activity in human erythrocytes assessed as haemolytic index by measuring hemoglobin release at 128 mg/L incubated for 1 hr by microplate spectrophotometry; type: ADME, cell-based, Erythrocyte; conditions: read-out: HI
[6] = Haemolytic activity in human erythrocytes assessed as haemolytic index by measuring hemoglobin release at 64 mg/L incubated for 1 hr by microplate spectrophotometry; type: ADME, cell-based, Erythrocyte; conditions: read-out: HI
Candida albicans [7] = experiment: […] activity against Candida albicans ATCC 10231 by antimicrobial susceptibility based testing method; type: functional
Enterococcus faecalis [8] = experiment: microbe, parasite or virus in culture; conditions: ATCC 29212
Description: Antibacterial activity against Enterococcus faecalis ATCC 29212 by antimicrobial susceptibility based testing method

| Structure (SMILES) | MIC (Candida albicans [1]) [µg/mL] | MIC (Yarrowia lipolytica) [µg/mL] | MIC (Bacillus subtilis) [µg/mL] | MIC (Enterococcus faecalis [2]) [µg/mL] | MIC (Staphylococcus aureus) [µg/mL] | MIC [3] [µg/mL] | MIC (Escherichia coli) [µg/mL] | MIC (Klebsiella pneumoniae) [µg/mL] | MIC (Proteus mirabilis) [µg/mL] | MIC (Pseudomonas aeruginosa) [µg/mL] | hemolysis at 1 h [4] [%] | hemolysis at 1 h, 128 mg/L [5] [%] | hemolysis at 1 h, 64 mg/L [6] [%] | MIC (Candida albicans [7]) [µg/mL] | MIC (Enterococcus faecalis [8]) [µg/mL] |
| --- | --- | --- | --- | --- | --- | --- | --- | --- | --- | --- | --- | --- | --- | --- | --- |
| C[C@@H]1CC[C@@]2(OC1)O[C@H]1C[C@H]3[C@@H]4CC=C5C[C@@H](O[C@@H]6O[C@H](CO)[C@@H](O)[C@H](O)[C@H]6NC(=O)[C@H](C)N)CC[C@]5(C)[C@H]4CC[C@]3(C)[C@H]1[C@@H]2C | 4 (≈ 6.18 µM) | 2 (≈ 3.09 µM) | 8 (≈ 12.4 µM) | 4 (≈ 6.18 µM) | 4 (≈ 6.18 µM) | 4 (≈ 6.18 µM) | > 128 | > 128 | > 128 | > 128 | < 10 | – | – | – | – |
| C[C@@H]1CC[C@@]2(OC1)O[C@H]1C[C@H]3[C@@H]4CC=C5C[C@@H](O[C@@H]6O[C@H](CO)[C@@H](O)[C@H](O)[C@H]6NC(=O)[C@@H](C)N)CC[C@]5(C)[C@H]4CC[C@]3(C)[C@H]1[C@@H]2C | 4 (≈ 6.18 µM) | 8 (≈ 12.4 µM) | 2 (≈ 3.09 µM) | 2 (≈ 3.09 µM) | 2 (≈ 3.09 µM) | 2 (≈ 3.09 µM) | > 128 | > 128 | > 128 | > 128 | < 10 | – | – | – | – |
| C[C@@H]1CC[C@@]2(OC1)O[C@H]1C[C@H]3[C@@H]4CC=C5C[C@@H](O[C@@H]6O[C@H](CO)[C@@H](O)[C@H](O)[C@H]6NC(=O)[C@@H](N)CCCCN)CC[C@]5(C)[C@H]4CC[C@]3(C)[C@H]1[C@@H]2C | 4 (≈ 5.68 µM) | 4 (≈ 5.68 µM) | 32 (≈ 45.5 µM) | 16 (≈ 22.7 µM) | 16 (≈ 22.7 µM) | 16 (≈ 22.7 µM) | > 128 | > 128 | > 128 | > 128 | – | 92 | – | – | – |
| C[C@@H]1CC[C@@]2(OC1)O[C@H]1C[C@H]3[C@@H]4CC=C5C[C@@H](O[C@@H]6O[C@H](CO)[C@@H](O)[C@H](O)[C@H]6NC(=O)[C@@H](O)CO)CC[C@]5(C)[C@H]4CC[C@]3(C)[C@H]1[C@@H]2C | 16 (≈ 24.1 µM) | 2 (≈ 3.01 µM) | > 128 | > 128 | > 128 | > 128 | > 128 | > 128 | > 128 | > 128 | – | 56 | 27 | – | – |
| C[C@@H]1CC[C@@]2(OC1)O[C@H]1C[C@H]3[C@@H]4CC=C5C[C@@H](O[C@@H]6O[C@H](CO)[C@@H](O)[C@H](O)[C@H]6NC(=O)[C@@H](N)[C@@H](C)O)CC[C@]5(C)[C@H]4CC[C@]3(C)[C@H]1[C@@H]2C | 4 (≈ 5.91 µM) | 4 (≈ 5.91 µM) | 32 (≈ 47.3 µM) | 16 (≈ 23.6 µM) | 16 (≈ 23.6 µM) | 16 (≈ 23.6 µM) | > 128 | > 128 | > 128 | > 128 | – | 56 | – | – | – |
| C[C@@H]1CC[C@@]2(OC1)O[C@H]1C[C@H]3[C@@H]4CC=C5C[C@@H](O[C@@H]6O[C@H](CO)[C@@H](O)[C@H](O)[C@H]6NC(=O)[C@H](C)O)CC[C@]5(C)[C@H]4CC[C@]3(C)[C@H]1[C@@H]2C | > 128 | > 128 | > 128 | > 128 | > 128 | > 128 | > 128 | > 128 | > 128 | > 128 | < 10 | – | – | – | – |
| C[C@@H]1[C@H](O)[C@@H](C)/C=C/C=C/C=C/C=C/C=C/C=C/C=C/[C@H](O[C@@H]2O[C@H](C)[C@@H](O)[C@H](N)[C@@H]2O)C[C@@H]2O[C@](O)(C[C@@H](O)C[C@@H](O)[C@H](O)CC[C@@H](O)C[C@@H](O)CC(=O)O[C@H]1C)C[C@H](O)[C@H]2C(=O)O [AMPHOTERICIN B] | – | – | – | – | – | – | – | – | – | – | – | – | – | 0.5 (≈ 0.541 µM) | – |
| CN[C@H](CC(C)C)C(=O)N[C@H]1C(=O)N[C@@H](CC(N)=O)C(=O)N[C@H]2C(=O)N[C@H]3C(=O)N[C@H](C(=O)N[C@H](C(=O)O)c4cc(O)cc(O)c4-c4cc3ccc4O)[C@H](O)c3ccc(c(Cl)c3)Oc3cc2cc(c3O[C@@H]2O[C@H](CO)[C@@H](O)[C@H](O)[C@H]2O[C@H]2C[C@](C)(N)[C@H](O)[C@H](C)O2)Oc2ccc(cc2Cl)[C@H]1O [VANCOMYCIN] | – | – | – | – | – | – | – | – | – | – | – | – | – | – | 2 (≈ 1.38 µM) |
